The test system of test [1] is K562 cells. In words: Cytotoxicity of dasatinib in proliferating vs quiescent K562 cells (FIG. 3). As to conditions: Homo sapiens. It is filed as cell-based.
A further test deals with quiescent K562 cultures. As to conditions: concentrations readily achievable in the clinic.
Test [2] deals with K562 cells. In words: cells. As to conditions: Homo sapiens, colony formation.

This note sets out measurements from US20060235006A1, “Combinations, methods and compositions for treating cancer” (priority 2005, published 2006).

Molecules are shown by their SMILES.

`Cc1nc(Nc2ncc(C(=O)Nc3c(C)cccc3Cl)s2)cc(N2CCN(CCO)CC2)n1` [dasatinib, ′N-(2-Chloro-6-methylphenyl)-2-[[6-[4-(2-hydroxyethyl)-1-piperazinyl]-2-methyl-4-pyrimidinyl]amino]-5-thiazolecarboxamide]: the IC50 in the test with K562 cells [1] (K562, proliferating K562 cells (FIG. 3)) is 0.69 nM; with K562 cells [1] (K562, quiescent K562 cells (FIG. 3)), over 11.2 nM; in the test with K562 cells [2] (K562, proliferating K562 cells), under 1 nM; in the test with K562 cells [2] (K562, quiescent K562 cultures (nutrient depletion)), over 12 nM. In addition, the “% cell kill” value with quiescent K562 cultures is listed as 0%.

What is called IC50 is the concentration that gives 50% inhibition. A lower IC50 goes with greater potency.
